Test results reported in PMC12881681 (Molecular Pharmacology, 2025).
Where “and” joins values, the source holds several entries; their conditions need not be identical. Equal entries are not always repeated. Where two headings read alike, the source gives them in different places.

Assays:
[1] = cancer patients, cited from earlier work; for Cmax: 150 mg/day erlotinib
[2] = Human plasma concentrations after erlotinib dosing (literature)
[3] = biological target: T1, human liver cytosolic AOX1 (Homo sapiens, UniProt Q06278); experiment: Effects of nucleophilic trapping agents and scavengers of reactive oxygen species on AOX1 inactivation; type: biochemical; parameters: Enzymatic reaction was initiated by adding human liver cytosol (100 μg); tissue Corning, Inc. (Gentest brand) 452115; host or cells: human liver cytosol, pool of 150 donors; conditions: inactivator 1.5 μM; for effect of catalase and superoxide dismutase on AOX1 inactivation: catalase 1000 and 2000 U, superoxide dismutase 500 and 1000 U; for effect of glutathione and N-acetylcysteine on AOX1 inactivation: glutathione or N-acetylcysteine 5 and 10 mM, 6 min
T1 sequence (Q06278 1-1338): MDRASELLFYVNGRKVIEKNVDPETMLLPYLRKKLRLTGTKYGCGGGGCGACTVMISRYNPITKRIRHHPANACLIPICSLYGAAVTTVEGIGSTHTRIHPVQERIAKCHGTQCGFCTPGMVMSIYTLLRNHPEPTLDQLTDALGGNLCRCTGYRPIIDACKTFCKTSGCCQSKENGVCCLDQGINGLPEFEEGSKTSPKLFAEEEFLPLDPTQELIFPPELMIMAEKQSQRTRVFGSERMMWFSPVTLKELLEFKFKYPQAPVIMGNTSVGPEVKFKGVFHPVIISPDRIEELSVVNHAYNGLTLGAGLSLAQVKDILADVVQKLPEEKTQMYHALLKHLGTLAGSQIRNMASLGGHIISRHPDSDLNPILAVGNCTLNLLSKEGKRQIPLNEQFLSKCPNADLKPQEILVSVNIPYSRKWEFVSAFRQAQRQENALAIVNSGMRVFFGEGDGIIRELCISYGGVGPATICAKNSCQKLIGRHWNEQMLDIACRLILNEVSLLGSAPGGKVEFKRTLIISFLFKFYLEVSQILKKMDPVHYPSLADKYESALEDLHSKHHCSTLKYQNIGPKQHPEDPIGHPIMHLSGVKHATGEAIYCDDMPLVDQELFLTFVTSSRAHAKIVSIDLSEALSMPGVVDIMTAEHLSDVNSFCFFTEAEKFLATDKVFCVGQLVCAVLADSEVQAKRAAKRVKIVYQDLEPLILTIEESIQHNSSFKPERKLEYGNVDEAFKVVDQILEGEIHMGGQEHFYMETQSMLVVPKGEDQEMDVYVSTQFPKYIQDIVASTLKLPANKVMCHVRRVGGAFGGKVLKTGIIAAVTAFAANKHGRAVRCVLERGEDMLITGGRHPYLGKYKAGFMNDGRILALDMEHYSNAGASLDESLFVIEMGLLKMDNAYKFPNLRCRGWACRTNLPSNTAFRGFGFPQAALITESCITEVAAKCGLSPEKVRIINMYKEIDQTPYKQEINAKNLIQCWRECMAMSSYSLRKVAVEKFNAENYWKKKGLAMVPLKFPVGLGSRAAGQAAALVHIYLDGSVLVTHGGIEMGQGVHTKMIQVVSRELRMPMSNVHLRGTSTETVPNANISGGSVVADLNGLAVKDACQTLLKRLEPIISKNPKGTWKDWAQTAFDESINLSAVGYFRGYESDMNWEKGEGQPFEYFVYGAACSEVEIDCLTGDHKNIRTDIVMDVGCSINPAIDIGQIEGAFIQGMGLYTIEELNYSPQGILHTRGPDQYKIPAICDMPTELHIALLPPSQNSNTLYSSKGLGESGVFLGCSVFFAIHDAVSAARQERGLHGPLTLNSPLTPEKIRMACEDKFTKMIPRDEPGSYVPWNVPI
Description: The control incubations were described in our previous publication.[28] Each standard incubation mixture was subjected to the same procedures as described in Enzyme Inactivation Experiments. The residual AOX1 enzyme activity was determined by the carbazeran 4-oxidation assay.

[4] = biological target: T1, human liver cytosolic AOX1; experiment: Dialysis experiment (reversibility of AOX1 inactivation); type: biochemical; parameters: Enzymatic reaction was initiated by adding human liver cytosol (100 μg); tissue Corning, Inc. (Gentest brand) 452115; host or cells: human liver cytosol, pool of 150 donors; conditions: 1.5 μM; for recovery of carbazeran 4-oxidation activity after dialysis: 4 and 24 hours of dialysis at 4 °C; for residual AOX1 activity: 6-minute preincubation, % of nondialyzed vehicle control
Description: Simultaneously, another aliquot (150 μL) of the primary incubation mixture was transferred to a Slide-A-Lyzer mini dialysis device (0.1 mL) with a molecular weight cutoff of 10,000 (Pierce Chemical Co.) and placed in a beaker filled with 300 mL of ice-cold potassium phosphate buffer (100 mM, pH 7.4). Additionally, potassium phosphate buffer (300 mL) was replaced at 2 and 4 hours after the start of dialysis. Dialysis was performed at 4 °C for 4 and 24 hours with constant gentle stirring. Subsequently, 10 μL of the dialyzed mixture was transferred to the secondary incubation mixture and the residual AOX1 enzyme activity was determined by the carbazeran 4-oxidation assay.

AOX1 (rat liver cytosol) = experiment: Inactivation of carbazeran 4-oxidation by rat liver cytosol; type: biochemical; conditions: 10 μM (raloxifene 0.02 μM), 30-minute preincubation
Description: Carbazeran 4-oxidation and O^6-benzylguanine 8-oxidation were deployed as AOX1-selective catalytic markers.[27] The assay conditions (amount of cytosolic protein, incubation time, and substrate concentration) for carbazeran 4-oxidation catalyzed by human recombinant AOX1 and human/rat/mouse liver cytosols were optimized previously.[7]^,[25]
Enzymatic reaction was initiated by adding human liver cytosol (100 μg). After the specified preincubation duration, an aliquot (10 μL) of the preincubation mixture was transferred to 190 μL of a prewarmed (for 3 minutes at 37 °C) secondary incubation mixture (total volume of 200 μL) containing potassium phosphate buffer and carbazeran (15 μM) or O^6-benzylguanine (150 μM), which yielded a 20-fold dilution of the primary incubation mixture. The secondary incubation mixture was incubated for 5 minutes at 37 °C before the enzymatic reaction was terminated with 200 μL of ice-cold acetonitrile containing carbazeran-d4 (2.5 nM final concentration; internal standard for 4-oxo-carbazeran) or tolbutamide (25 nM final concentration; internal standard for 8-oxo-O^6-benzylguanine). Each sample was immediately mixed by vortex, placed on ice, centrifuged at 16,000g for 15 minutes at 4 °C and stored at –30 °C until ultra-high performance liquid chromatography–tandem mass spectrometry (UPLC-MS/MS) analysis. For enzyme inactivation assays involving rat and mouse liver cytosol and recombinant AOX1 assays, the experimental conditions were similar to those of human liver cytosol, except that the amount of cytosolic protein was 200 μg (rat) and 150 μg (mouse), respectively, and the incubation time of the secondary incubation mixture was 60 minutes. For the recombinant AOX1 enzyme assay, the amount of enzyme was 100 μg, the incubation time of the secondary incubation mixture was 15 minutes, and the total volume of the primary and secondary incubation mixtures was reduced to 100 μL.
An aliquot (10 μL) of the primary incubation mixture was transferred to a secondary incubation mixture containing carbazeran (15 μM) and incubated for (A) 180, (B) 5, or (C, D) 120 minutes.

Structure (SMILES) | Cmax ([1]; day 28) [µM] | Cmax ([1]; erlotinib in plasma, day 24 to day 28) [µM] | Cmax,u ([2]; Cmax,u = plasma fu × Cmax, plasma fu = 0.07) [µM] | effect of catalase and superoxide dismutase on AOX1 inactivation [3] | effect of glutathione and N-acetylcysteine on AOX1 inactivation [3] | recovery of carbazeran 4-oxidation activity after dialysis [4] | residual AOX1 activity ([4]; 24-hour dialysis at 4 °C) [%] | residual AOX1 activity ([4]; without dialysis) [%] | decrease in carbazeran 4-oxidation (AOX1 (rat liver cytosol)) | C24h ([1]; 150 mg/day erlotinib for 1–2 months) | Cmax,u ([2]; in vivo) [µM]
C#Cc1cccc(Nc2ncnc3cc(OCCOC)c(OCCOC)cc23)c1 [Erlotinib] | 5.39 | 4.41 to 5.39 | 0.31 to 0.38 | did not protect | did not reduce the inactivation | not recovered | 3.7 | 7.8 |  |  | 
C#Cc1cccc(Nc2ncnc3cc(OCCO)c(OCCO)cc23)c1 [O-Didesmethylerlotinib, O-didesmethylerlotinib] |  |  |  | did not protect | did not reduce the inactivation | not reversed |  |  | 92%–97% | 0.86–4.2 ng/mL and 2.35–11.49 nM | 0.0001 to 0.0008
C#Cc1cccc(Nc2ncnc3cc(OCCOC)c(OCCO)cc23)c1 [O-Desmethylerlotinib, O-desmethylerlotinib] |  |  |  | did not protect | did not reduce the inactivation | not reversed |  |  | 92%–97% |  | 0.0077 to 0.02
